# Like-named read-outs stand apart in the source and are kept apart here.
# Tests used:
# EGFR (L858R T790M C797S) = target: T1, EGFR (L858R T790M C797S) (Homo sapiens, UniProt P00533, C797S/L858R/T790M); test: Biochemical EGFR inhibition assay (Caliper mobility shift), EGFR LRTMCS
# T1 construct: purchased SignalChem E10-122VG
# Method in brief: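 Kinase reactions proceed at 25° C. to 10%–20% conversion of total peptide, are terminated with 35 mM EDTA, and the phosphopeptide is resolved from substrate by electrophoretic mobility shift. Apparent IC50 values come from plotting percent activity against log compound concentration.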
# [1] = target: T2, intracellular phosphorylation of EGFR in NCI-H1975 cell line that harbors the EGFR L858R T790M mutations (Homo sapiens, UniProt P00533, L858R/T790M); test: NCI-H1975 pEGFR AlphaLISA assay; type: cell-based; details: NCI-H1975 cells (EGFR L858R T790M), p-EGFR (Tyr1068), 4-5 hours incubation; read-out: Ext pEGFR H1975 GMean IC50 (nM) Protocol: @Pharmaron AlphaLISA (Num)
# T2 construct: NCI-H1975 cell line that harbors the EGFR L858R T790M mutations (ATCC, CRL-5908); host or cells: NCI-H1975
# T2 sequence (P00533 25-1210 T790M/L858R): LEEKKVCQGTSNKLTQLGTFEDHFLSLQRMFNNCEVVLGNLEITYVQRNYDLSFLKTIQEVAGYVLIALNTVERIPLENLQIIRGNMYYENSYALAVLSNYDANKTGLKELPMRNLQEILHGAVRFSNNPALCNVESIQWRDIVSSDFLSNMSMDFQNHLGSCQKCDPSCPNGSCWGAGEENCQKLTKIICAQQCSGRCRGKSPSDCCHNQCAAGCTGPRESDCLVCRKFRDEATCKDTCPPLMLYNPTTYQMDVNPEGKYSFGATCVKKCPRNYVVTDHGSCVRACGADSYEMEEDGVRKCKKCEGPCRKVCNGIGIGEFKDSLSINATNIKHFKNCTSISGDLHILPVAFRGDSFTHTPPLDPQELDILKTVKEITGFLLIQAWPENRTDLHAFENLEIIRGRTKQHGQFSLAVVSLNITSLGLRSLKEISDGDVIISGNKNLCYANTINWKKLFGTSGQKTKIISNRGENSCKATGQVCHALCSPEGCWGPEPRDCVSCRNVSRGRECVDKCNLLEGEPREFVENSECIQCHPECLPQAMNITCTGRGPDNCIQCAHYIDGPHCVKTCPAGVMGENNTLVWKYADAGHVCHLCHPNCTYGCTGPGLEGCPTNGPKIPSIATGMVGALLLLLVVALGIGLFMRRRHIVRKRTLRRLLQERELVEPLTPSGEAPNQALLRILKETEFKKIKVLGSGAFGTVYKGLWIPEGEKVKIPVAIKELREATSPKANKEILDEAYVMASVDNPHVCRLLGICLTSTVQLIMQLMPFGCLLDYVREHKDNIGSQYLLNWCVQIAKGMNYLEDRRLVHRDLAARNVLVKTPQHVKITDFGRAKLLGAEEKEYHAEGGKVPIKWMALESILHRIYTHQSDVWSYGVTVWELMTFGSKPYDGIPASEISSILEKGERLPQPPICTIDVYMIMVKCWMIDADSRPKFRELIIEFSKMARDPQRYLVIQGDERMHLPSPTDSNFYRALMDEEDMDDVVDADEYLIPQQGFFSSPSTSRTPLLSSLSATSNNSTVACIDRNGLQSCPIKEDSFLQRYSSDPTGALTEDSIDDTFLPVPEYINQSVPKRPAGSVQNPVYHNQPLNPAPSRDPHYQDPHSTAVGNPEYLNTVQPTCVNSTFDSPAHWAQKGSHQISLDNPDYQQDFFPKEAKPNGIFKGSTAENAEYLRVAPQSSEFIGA
# Description: On the next day, the test compounds and DMSO control were added into H1975 cell plate followed by incubation at 37C/5% CO2 for 4-5 hours. […] Then 5 μL of a donor bead mix was added to each well followed by overnight incubation at room temperature in dark. On the next day, the plate was read at a compatible plate reader to obtain pEGFR signal. Percent of pEGFR inhibition was plotted against log concentration of compounds to generate IC50 values.
# [2] = LRTMCS (PH) IC50 (nM) @ 1 mM ATP (Num), EGFR LRTMCS mutant
# T1 sequence (P00533 25-1210 T790M/C797S/L858R): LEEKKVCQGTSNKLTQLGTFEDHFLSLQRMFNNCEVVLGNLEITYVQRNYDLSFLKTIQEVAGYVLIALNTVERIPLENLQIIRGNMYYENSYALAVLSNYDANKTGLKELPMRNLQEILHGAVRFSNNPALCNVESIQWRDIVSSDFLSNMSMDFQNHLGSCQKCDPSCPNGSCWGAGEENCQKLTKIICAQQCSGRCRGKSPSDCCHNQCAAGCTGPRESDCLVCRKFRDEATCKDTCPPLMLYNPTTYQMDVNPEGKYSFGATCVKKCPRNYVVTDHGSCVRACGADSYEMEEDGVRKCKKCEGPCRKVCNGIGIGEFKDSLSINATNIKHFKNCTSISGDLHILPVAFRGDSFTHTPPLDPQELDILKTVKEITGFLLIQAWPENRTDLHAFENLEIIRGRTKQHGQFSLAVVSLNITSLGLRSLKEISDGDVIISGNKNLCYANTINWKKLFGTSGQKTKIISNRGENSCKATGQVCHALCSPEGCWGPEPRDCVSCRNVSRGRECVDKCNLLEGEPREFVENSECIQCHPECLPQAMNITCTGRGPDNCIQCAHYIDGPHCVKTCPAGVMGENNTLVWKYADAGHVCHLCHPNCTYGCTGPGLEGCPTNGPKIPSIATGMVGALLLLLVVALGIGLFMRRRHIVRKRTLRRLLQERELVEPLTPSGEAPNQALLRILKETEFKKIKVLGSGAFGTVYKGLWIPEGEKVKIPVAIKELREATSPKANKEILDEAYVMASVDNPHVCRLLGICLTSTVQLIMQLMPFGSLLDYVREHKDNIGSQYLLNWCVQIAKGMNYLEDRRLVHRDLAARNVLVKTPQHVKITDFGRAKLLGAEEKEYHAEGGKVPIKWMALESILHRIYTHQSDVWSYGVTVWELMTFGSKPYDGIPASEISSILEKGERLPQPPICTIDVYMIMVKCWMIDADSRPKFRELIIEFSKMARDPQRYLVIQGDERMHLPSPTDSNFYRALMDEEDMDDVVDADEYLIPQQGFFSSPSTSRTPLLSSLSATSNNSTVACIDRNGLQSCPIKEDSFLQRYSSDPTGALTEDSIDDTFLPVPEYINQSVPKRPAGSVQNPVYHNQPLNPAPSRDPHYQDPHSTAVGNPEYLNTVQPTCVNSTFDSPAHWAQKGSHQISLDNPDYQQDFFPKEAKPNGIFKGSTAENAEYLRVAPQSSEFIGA
Compound,IC50 (EGFR (L858R T790M C797S); [2]),IC50 [1],"IC50 (EGFR (L858R T790M C797S); read-out: LRTMCS (PH) IC50 (nM) @ 1 mM ATP (Num), EGFR LRTMCS mutant)"
"CC(C)c1cnc(N2CC[C@H]2C)c2cnc(Nc3ccnc(N4CCC(O)(CO)CC4)n3)cc12 [Example 131, (R)-4-(hydroxymethyl)-1-(4-((5-isopropyl-8-(2-methylazetidin-1-yl)-2,7-naphthyridin-3-yl)amino)pyrimidin-2-yl)piperidin-4-ol]",15 to 20 nM,> 50 nM,
"CC(C)c1cnc(N2CC[C@H]2C(F)F)c2cnc(Nc3ccnc(N4CC[C@@H](O)[C@@](C)(F)C4)n3)cc12 (single isomer, unassigned) [Example 204, (3S,4R)-1-(4-((8-((S)-2-(difluoromethyl)azetidin-1-yl)-5-isopropyl-2,7-naphthyridin-3-yl)amino)pyrimidin-2-yl)-3-fluoro-3-methylpiperidin-4-ol or (3S,4R)-1-(4-((8-((R)-2-(difluoromethyl)azetidin-1-yl)-5-isopropyl-2,7-naphthyridin-3-yl)amino)pyrimidin-2-yl)-3-fluoro-3-methylpiperidin-4-ol]",< 15 nM,10 to 20 nM,
"CC(C)c1cnc(N2CC(CO)C2)c2cnc(Nc3ccnc(N4CC[C@@H](O)[C@@](C)(F)C4)n3)cc12 [Example 61, (3S,4R)-3-fluoro-1-(4-((8-(3-(hydroxymethyl)azetidin-1-yl)-5-isopropyl-2,7-naphthyridin-3-yl)amino)pyrimidin-2-yl)-3-methylpiperidin-4-ol]",< 15 nM,30 to 50 nM,
"Cc1nc(-c2cnc(C(C)C)c3cc(Nc4ccnc(N5CC[C@@H](O)[C@@](C)(F)C5)n4)ncc23)no1 [Example 8, (3S,4R)-3-fluoro-1-(4-((5-isopropyl-8-(5-methyl-1,2,4-oxadiazol-3-yl)-2,6-naphthyridin-3-yl)amino)pyrimidin-2-yl)-3-methylpiperidin-4-ol]",20 to 30 nM,> 50 nM,
"CC(C)c1cnc(N2CC(C)(O)C2)c2cnc(Nc3ccnc(N4CC[C@@H](O)[C@@](C)(F)C4)n3)cc12 [Example 50, (3S,4R)-3-fluoro-1-(4-((8-(3-hydroxy-3-methylazetidin-1-yl)-5-isopropyl-2,7-naphthyridin-3-yl)amino)pyrimidin-2-yl)-3-methylpiperidin-4-ol]",20 to 30 nM,> 50 nM,
"COCC1(F)CN(c2ncc(C(C)C)c3cc(Nc4ccnc(N5CC[C@@H](O)[C@@](C)(F)C5)n4)ncc23)C1 [Example 68, (3S,4R)-3-fluoro-1-(4-((8-(3-fluoro-3-(methoxymethyl)azetidin-1-yl)-5-isopropyl-2,7-naphthyridin-3-yl)amino)pyrimidin-2-yl)-3-methylpiperidin-4-ol]",20 to 30 nM,30 to 50 nM,
"CC(C)c1cnc(N2CC(C#N)(CO)C2)c2cnc(Nc3ccnc(N4CC[C@@H](O)[C@@](C)(F)C4)n3)cc12 [Example 73, 1-(6-((2-((3S,4R)-3-fluoro-4-hydroxy-3-methylpiperidin-1-yl)pyrimidin-4-yl)amino)-4-isopropyl-2,7-naphthyridin-1-yl)-3-(hydroxymethyl)azetidine-3-carbonitrile]",30 to 100 nM,> 50 nM,
"CC(C)c1cnc(N2Cc3cnn(C)c3C2)c2cnc(Nc3ccnc(N4CC[C@@H](O)[C@@](C)(F)C4)n3)cc12 [Example 90, (3S,4R)-3-fluoro-1-(4-((5-isopropyl-8-(1-methyl-4,6-dihydropyrrolo[3,4-c]pyrazol-5(1H)-yl)-2,7-naphthyridin-3-yl)amino)pyrimidin-2-yl)-3-methylpiperidin-4-ol]",< 15 nM,30 to 50 nM,
"CC(C)c1cnc(N2CC[C@H]2CF)c2cnc(Nc3ccnc(N4CC[C@@H](O)[C@@](C)(F)C4)n3)cc12 [Example 76, (3S,4R)-3-fluoro-1-(4-((8-((S)-2-(fluoromethyl)azetidin-1-yl)-5-isopropyl-2,7-naphthyridin-3-yl)amino)pyrimidin-2-yl)-3-methylpiperidin-4-ol]",< 15 nM,10 to 20 nM,
"CC(C)c1cnc(N2CCC2)c2cnc(Nc3ccnc(N4CC[C@@H](O)[C@@H](F)C4)n3)cc12 [Example 152, (3S,4R)-1-(4-((8-(azetidin-1-yl)-5-isopropyl-2,7-naphthyridin-3-yl)amino)pyrimidin-2-yl)-3-fluoropiperidin-4-ol]",15 to 20 nM,30 to 50 nM,
"C[C@H](c1cnc(N2CC[C@H]2C)c2cnc(Nc3ccnc(N4CC[C@@H](O)[C@@](C)(F)C4)n3)cc12)C1COC1 (single isomer, unassigned) [Example 177, (3S,4R)-3-fluoro-3-methyl-1-(4-((8-((R)-2-methylazetidin-1-yl)-5-((S)-1-(oxetan-3-yl)ethyl)-2,7-naphthyridin-3-yl)amino)pyrimidin-2-yl)piperidin-4-ol or (3S,4R)-3-fluoro-3-methyl-1-(4-((8-((R)-2-methylazetidin-1-yl)-5-((R)-1-(oxetan-3-yl)ethyl)-2,7-naphthyridin-3-yl)amino)pyrimidin-2-yl)piperidin-4-ol]",,20 to 30 nM,< 15 nM
"CC(C)c1cnc(-c2cn(C)nn2)c2cnc(Nc3ccnc(N4CCC5(CCO5)CC4)n3)cc12 [Example 23, N-(2-(1-oxa-7-azaspiro[3.5]nonan-7-yl)pyrimidin-4-yl)-5-isopropyl-8-(1-methyl-1H-1,2,3-triazol-4-yl)-2,7-naphthyridin-3-amine]",< 15 nM,> 50 nM,
"CC(C)c1ncc(N2CC(F)C2)c2cnc(Nc3ccnc(N4CC[C@@H](O)[C@@](C)(F)C4)n3)cc12 [Example 49, (3S,4R)-3-fluoro-1-(4-((8-(3-fluoroazetidin-1-yl)-5-isopropyl-2,6-naphthyridin-3-yl)amino)pyrimidin-2-yl)-3-methylpiperidin-4-ol]",15 to 20 nM,30 to 50 nM,
"CC(C)c1cnc(N2CCCC2)c2cnc(Nc3ccnc(N4CC[C@@H](O)[C@@H](F)C4)n3)cc12 [Example 151, (3S,4R)-3-fluoro-1-(4-((5-isopropyl-8-(pyrrolidin-1-yl)-2,7-naphthyridin-3-yl)amino)pyrimidin-2-yl)piperidin-4-ol]",20 to 30 nM,30 to 50 nM,
"CC(C)c1nnc(N2CC[C@@H]2C)c2cnc(Nc3ccnc(N4CC[C@@H](O)[C@@](C)(F)C4)n3)cc12 (single isomer, unassigned) [Example 206, (3S,4R)-3-fluoro-1-(4-((1-isopropyl-4-((S)-2-methylazetidin-1-yl)pyrido[3,4-d]pyridazin-7-yl)amino)pyrimidin-2-yl)-3-methylpiperidin-4-ol or (3S,4R)-3-fluoro-1-(4-((1-isopropyl-4-((S)-2-methylazetidin-1-yl)pyrido[3,4-d]pyridazin-7-yl)amino)pyrimidin-2-yl)-3-methylpiperidin-4-ol]",< 15 nM,20 to 30 nM,
"CNC(=O)CC1CN(c2ncc(C(C)C)c3cc(Nc4ccnc(N5CC[C@@H](O)[C@@](C)(F)C5)n4)ncc23)C1 [Example 87, 2-(1-(6-((2-((3S,4R)-3-fluoro-4-hydroxy-3-methylpiperidin-1-yl)pyrimidin-4-yl)amino)-4-isopropyl-2,7-naphthyridin-1-yl)azetidin-3-yl)-N-methylacetamide]",< 15 nM,20 to 30 nM,
"CC(C)c1nnc(N2CCCC2)c2cnc(Nc3ccnc(N4CC[C@@H](O)[C@@](C)(F)C4)n3)cc12 [Example 114, (3S,4R)-3-fluoro-1-(4-((1-isopropyl-4-(pyrrolidin-1-yl)pyrido[3,4-d]pyridazin-7-yl)amino)pyrimidin-2-yl)-3-methylpiperidin-4-ol]",30 to 100 nM,> 50 nM,
